pIC50: −log10 of the molar value. Like-named read-outs stand apart in the source and are kept apart here.

Assay [1] concerns the target p110β/p85α (Homo sapiens (Human), UniProt P42338). The experiment in a line: PI 3-Kinase (human) HTRF assay, p110β/p85α. In kind it is biochemical.
Assay [2] deals with p110α/p85α (Homo sapiens (Human), UniProt P42336). In words: PI 3-Kinase (human) HTRF assay, p110α/p85α. The assay is classed as biochemical.
Assay [3] has as its target p110δ/p85α (Homo sapiens (Human), UniProt O00329). In words: PI 3-Kinase (human) HTRF assay, p110δ/p85α. The assay is classed as biochemical.
Assay [4] addresses p110γ (Homo sapiens (Human), UniProt P48736). The experiment in a line: PI 3-Kinase (human) HTRF assay, p110γ. In kind it is biochemical.
Assay [5] has as its system tumor cells with a PI3Kα mutation (e.g., MDA-MB-361 and T47D). In words: Proliferation of tumor cells with PI3Kα mutation. In kind it is cell-based. Conditions: Homo sapiens.
[6] abbreviates: in vitro, read-out: PI3K β IC50.
Where [7] appears, read: in vitro, read-out: PI3K α IC50.
Where [8] appears, read: in vitro, read-out: PI3K δ IC50.
Where [9] appears, read: in vitro, read-out: PI3K γ IC50.
Setting [10] is: PC3, read-out: PC3 proliferation In Vitro IC50.

p110β/p85α, sequence (P42338 whole entry): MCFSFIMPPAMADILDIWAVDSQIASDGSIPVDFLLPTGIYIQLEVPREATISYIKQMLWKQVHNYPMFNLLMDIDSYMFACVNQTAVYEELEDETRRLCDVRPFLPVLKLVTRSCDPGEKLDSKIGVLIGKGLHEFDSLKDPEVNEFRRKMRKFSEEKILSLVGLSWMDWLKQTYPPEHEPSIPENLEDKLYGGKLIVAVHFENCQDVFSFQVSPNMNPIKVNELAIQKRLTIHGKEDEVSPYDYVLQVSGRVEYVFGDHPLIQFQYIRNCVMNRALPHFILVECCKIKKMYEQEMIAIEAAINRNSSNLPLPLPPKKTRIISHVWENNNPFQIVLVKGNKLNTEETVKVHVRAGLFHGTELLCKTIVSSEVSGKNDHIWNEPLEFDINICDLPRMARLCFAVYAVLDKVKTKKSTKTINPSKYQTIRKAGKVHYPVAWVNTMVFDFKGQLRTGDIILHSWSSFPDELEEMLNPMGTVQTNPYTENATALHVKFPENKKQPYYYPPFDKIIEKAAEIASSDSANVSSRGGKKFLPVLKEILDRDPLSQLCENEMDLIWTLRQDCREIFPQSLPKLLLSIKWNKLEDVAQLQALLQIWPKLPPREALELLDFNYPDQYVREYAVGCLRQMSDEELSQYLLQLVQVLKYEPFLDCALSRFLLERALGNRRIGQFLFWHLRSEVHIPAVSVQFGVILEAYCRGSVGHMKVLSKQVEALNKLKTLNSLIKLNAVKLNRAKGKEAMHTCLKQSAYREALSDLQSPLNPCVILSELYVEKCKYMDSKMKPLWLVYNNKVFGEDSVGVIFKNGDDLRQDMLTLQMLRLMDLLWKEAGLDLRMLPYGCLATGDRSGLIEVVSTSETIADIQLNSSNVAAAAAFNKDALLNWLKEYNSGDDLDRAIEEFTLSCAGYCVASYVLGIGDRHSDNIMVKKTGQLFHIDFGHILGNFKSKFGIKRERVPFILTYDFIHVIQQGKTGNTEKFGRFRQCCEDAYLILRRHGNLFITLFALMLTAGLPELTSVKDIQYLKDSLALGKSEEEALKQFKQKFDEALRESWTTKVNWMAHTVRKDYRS
p110β/p85α, sequence (P27986 whole entry partner): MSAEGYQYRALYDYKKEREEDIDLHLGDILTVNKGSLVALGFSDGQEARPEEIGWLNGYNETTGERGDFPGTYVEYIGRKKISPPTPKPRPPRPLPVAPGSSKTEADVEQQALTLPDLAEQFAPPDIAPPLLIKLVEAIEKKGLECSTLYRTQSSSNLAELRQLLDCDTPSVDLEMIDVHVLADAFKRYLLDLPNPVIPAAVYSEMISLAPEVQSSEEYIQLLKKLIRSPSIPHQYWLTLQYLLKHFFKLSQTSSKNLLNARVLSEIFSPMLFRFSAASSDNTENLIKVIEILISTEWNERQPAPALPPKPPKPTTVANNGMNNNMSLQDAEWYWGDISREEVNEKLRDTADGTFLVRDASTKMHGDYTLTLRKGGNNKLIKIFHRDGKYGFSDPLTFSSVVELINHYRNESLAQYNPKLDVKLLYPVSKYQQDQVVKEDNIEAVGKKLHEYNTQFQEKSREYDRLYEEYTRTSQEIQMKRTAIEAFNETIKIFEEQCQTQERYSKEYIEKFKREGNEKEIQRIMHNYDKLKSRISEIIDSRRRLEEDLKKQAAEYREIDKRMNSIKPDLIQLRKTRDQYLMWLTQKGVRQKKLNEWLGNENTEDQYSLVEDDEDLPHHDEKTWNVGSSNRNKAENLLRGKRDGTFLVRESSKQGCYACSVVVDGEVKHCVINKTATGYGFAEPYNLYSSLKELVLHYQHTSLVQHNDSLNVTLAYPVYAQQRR
p110γ, sequence (P48736 whole entry): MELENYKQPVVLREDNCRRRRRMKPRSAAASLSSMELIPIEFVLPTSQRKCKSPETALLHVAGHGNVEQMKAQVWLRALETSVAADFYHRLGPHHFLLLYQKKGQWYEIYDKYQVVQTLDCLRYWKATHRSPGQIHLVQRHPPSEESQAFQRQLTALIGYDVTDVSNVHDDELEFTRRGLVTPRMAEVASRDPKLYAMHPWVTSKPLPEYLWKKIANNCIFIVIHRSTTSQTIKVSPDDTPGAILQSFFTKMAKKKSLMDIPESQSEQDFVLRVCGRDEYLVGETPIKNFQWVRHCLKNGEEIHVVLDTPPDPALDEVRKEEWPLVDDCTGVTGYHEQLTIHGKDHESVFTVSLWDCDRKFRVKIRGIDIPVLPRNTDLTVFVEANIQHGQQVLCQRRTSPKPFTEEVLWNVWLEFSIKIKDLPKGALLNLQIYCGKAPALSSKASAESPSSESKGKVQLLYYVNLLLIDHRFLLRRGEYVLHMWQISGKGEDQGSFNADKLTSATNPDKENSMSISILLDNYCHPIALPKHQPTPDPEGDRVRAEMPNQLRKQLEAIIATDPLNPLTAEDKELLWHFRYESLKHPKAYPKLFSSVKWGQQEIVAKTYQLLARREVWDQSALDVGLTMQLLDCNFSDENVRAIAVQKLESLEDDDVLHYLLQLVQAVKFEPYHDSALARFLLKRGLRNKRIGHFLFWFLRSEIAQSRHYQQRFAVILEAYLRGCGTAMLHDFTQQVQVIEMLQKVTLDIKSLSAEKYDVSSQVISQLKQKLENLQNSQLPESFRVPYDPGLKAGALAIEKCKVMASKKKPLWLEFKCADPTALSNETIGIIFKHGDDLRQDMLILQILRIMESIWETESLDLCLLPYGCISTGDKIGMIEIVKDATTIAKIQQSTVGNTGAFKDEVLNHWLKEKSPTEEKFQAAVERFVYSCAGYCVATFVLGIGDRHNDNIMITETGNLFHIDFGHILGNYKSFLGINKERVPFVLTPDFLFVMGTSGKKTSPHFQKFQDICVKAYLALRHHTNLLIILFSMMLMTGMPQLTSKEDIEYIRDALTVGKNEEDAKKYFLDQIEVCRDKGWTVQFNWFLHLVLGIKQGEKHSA
p110δ/p85α, sequence (O00329 whole entry): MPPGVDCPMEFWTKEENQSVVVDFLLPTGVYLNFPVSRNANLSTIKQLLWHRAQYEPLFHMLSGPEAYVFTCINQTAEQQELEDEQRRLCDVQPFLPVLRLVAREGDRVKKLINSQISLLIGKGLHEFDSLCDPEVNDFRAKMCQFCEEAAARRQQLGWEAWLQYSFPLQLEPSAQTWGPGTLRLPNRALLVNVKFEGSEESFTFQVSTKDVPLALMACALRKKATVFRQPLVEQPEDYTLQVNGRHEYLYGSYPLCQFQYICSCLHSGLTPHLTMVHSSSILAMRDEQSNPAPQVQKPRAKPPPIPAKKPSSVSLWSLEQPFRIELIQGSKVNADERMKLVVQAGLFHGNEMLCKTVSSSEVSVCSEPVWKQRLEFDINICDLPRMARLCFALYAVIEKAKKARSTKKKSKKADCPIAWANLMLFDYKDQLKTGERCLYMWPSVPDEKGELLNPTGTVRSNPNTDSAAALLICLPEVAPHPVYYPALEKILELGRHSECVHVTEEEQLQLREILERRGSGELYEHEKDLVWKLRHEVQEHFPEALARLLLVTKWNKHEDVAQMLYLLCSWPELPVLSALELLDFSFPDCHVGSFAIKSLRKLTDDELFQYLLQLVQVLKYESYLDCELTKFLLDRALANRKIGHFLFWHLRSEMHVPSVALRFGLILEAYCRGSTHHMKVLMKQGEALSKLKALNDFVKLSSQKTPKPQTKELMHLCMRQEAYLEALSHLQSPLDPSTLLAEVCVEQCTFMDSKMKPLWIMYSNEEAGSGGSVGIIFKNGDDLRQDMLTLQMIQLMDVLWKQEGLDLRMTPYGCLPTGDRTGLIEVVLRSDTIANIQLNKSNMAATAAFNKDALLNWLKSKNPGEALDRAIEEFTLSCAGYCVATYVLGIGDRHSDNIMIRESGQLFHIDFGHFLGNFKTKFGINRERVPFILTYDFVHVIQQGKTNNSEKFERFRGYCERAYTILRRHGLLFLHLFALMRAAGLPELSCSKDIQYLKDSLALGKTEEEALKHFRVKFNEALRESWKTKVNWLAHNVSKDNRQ
p110δ/p85α, sequence (P27986 whole entry partner): as the sequence (P27986 whole entry partner) above
p110α/p85α, sequence (P42336 whole entry): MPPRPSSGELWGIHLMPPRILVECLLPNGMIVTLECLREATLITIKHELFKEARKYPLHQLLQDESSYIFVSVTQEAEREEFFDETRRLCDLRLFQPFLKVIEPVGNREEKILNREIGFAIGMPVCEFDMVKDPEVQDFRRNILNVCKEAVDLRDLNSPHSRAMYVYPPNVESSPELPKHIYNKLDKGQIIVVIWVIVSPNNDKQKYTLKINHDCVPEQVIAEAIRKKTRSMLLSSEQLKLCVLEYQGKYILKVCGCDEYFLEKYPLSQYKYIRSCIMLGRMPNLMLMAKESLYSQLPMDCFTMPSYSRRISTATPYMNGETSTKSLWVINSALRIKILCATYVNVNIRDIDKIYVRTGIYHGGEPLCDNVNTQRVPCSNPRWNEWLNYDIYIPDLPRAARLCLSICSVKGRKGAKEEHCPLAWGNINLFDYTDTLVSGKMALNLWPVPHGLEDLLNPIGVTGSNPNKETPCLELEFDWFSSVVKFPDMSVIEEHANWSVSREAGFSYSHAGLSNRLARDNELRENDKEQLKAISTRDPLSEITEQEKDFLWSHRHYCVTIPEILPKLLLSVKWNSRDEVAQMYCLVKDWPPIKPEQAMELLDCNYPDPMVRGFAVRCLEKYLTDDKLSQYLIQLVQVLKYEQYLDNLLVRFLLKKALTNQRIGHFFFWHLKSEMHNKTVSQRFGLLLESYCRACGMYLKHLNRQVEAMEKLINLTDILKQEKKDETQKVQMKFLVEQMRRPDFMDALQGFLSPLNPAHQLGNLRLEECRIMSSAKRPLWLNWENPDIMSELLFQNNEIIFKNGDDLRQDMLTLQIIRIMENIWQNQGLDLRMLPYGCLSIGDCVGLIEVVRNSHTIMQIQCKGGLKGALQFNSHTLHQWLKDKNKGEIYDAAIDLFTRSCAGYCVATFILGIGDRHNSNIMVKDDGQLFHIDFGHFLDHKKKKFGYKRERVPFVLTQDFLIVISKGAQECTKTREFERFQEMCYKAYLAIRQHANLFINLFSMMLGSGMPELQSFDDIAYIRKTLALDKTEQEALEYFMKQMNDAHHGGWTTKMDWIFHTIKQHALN
p110α/p85α, sequence (P27986 whole entry partner): as the sequence (P27986 whole entry partner) above

Regarding `Nc1nc2cc(-c3ccc4ncc(N5CC(N6CCOCC6)C5)nc4c3)cc(F)c2o1` [compound 361], the pIC50 is above 6.00 in assay [1] (setting [6]), above 7.00 in assay [2] (setting [7]), above 5.00 in assay [3] (setting [8]) and above 6.00 in assay [4] (setting [9]).
In the case of `COc1ncc(-c2ccc3ncc(C(=O)N4CCOCC4)n3c2)cc1NS(C)(=O)=O` [compound 416], the pIC50 in assay [1] (read-out: PI3K β In Vitro IC50) was above 5.00; in assay [2] (read-out: PI3K α In Vitro IC50), above 7.00; in assay [3] (read-out: PI3K δ In Vitro IC50), above 5.00; in assay [4] (read-out: PI3K γ In Vitro IC50), above 6.00.
Consider `Nc1nc2cc(-c3ccc4ncc(NCCCN5CCCC5)nc4c3)ccc2o1` [compound 221], for which the pIC50 in assay [1] (setting [6]) is above 6.00; in assay [2] (setting [7]), above 7.00; in assay [3] (setting [8]), above 7.00; in assay [4] (setting [9]) it was above 7.00.
As for `Nc1nc2cc(-c3ccc4ncc(-c5cn[nH]c5)nc4c3)ccc2o1` [compound 78], the pIC50 was above 6.00 in assay [1] (read-out: PI3K β IC50), above 7.00 in assay [2] (read-out: PI3K α IC50), above 6.00 in assay [3] (read-out: PI3K δ IC50) and above 7.00 in assay [4] (read-out: PI3K γ IC50).
Consider `CN1CCC(NC(=O)c2cnc3ccc(-c4ccc5oc(N)nc5c4)nn23)CC1` [compound 203], for which the pIC50 is above 7.00 in assay [1] (setting [6]), above 7.00 in assay [2] (setting [7]), above 6.00 in assay [3] (setting [8]) and above 7.00 in assay [4] (setting [9]).
As to `CC1CN(C(=O)c2cnc3ccc(-c4ccc5oc(N)nc5c4)cn23)CCO1` (stereo not drawn) [compound 201], the pIC50 in assay [1] (setting [6]) is above 5.00; in assay [2] (setting [7]), above 7.00; in assay [5] (T47D cells, read-out: T47D proliferation IC50) it was above 5.00; in assay [4] (setting [9]), above 5.00.
On to `CN1CCN(c2ccnc3ccc(-c4ccc5oc(N)nc5c4)cc23)CC1` [compound 21], for which the pIC50 in assay [1] (read-out: PI3K β IC50) is above 5.00; in assay [2] (read-out: PI3K α IC50), above 6.00; in assay [3] (read-out: PI3K δ IC50), above 5.00; in assay [4] (read-out: PI3K γ IC50), above 5.00.
As for `Nc1nc2cc(-c3ccc4ncc(C(=O)N5CCN(CC6CC6)CC5)n4c3)ccc2o1` [compound 161], the pIC50 in assay [1] (read-out: PI3K β IC50) was above 5.00; in assay [2] (read-out: PI3K α IC50), above 6.00; in assay [3] (read-out: PI3K δ IC50) it was above 5.00; in assay [4] (read-out: PI3K γ IC50), above 5.00.
For `Nc1nc2cc(-c3ccc4ncc(C(=O)N5CCN(CCO)CC5)n4c3)ccc2o1` [compound 148], the pIC50 is above 7.00 in assay [2] (read-out: PI3K α IC50); above 5.00 in assay [5] (T47D cells, read-out: T47D proliferation); above 5.00 in assay [4] (read-out: PI3K γ IC50).
For the compound `CC(=O)N1CCN(C2CN(c3cnc4ccc(-c5ccc6oc(N)nc6c5)cc4n3)C2)CC1` [compound 327], the pIC50 was above 5.00 in assay [1] (setting [6]), above 7.00 in assay [2] (setting [7]), above 6.00 in assay [3] (setting [8]) and above 6.00 in assay [4] (setting [9]).
On to `CN1CC(C(=O)N2CCC(Nc3ncnc4ccc(-c5ccc6oc(N)nc6c5)cc34)CC2)C1` [compound 138], for which the pIC50 was above 6.00 in assay [1] (read-out: PI3K β IC50), above 7.00 in assay [2] (read-out: PI3K α IC50), above 7.00 in assay [3] (read-out: PI3K δ IC50) and above 6.00 in assay [4] (read-out: PI3K γ IC50).
`CN1CCC(N(C)c2cnc3ccc(-c4ccc5oc(N)nc5c4)cc3n2)CC1` [compound 151]: the pIC50 in assay [1] (read-out: PI3K β IC50) is above 5.00; in assay [2] (read-out: PI3K α IC50), above 7.00; in assay [3] (read-out: PI3K δ IC50), above 6.00; in assay [4] (read-out: PI3K γ IC50), above 5.00.
Turning to `Cc1cc(-c2ccc3oc(N)nc3c2)cc2c(-c3ccncc3)cnn12` [compound 397], the pIC50 in assay [1] (read-out: PI3K β In Vitro IC50) was above 6.00; in assay [2] (read-out: PI3K α In Vitro IC50), above 7.00; in assay [3] (read-out: PI3K δ In Vitro IC50), above 6.00; in assay [4] (read-out: PI3K γ In Vitro IC50), above 7.00.
For `C[C@H]1COCCN1C(=O)c1cnc2ccc(-c3ccc4oc(N)nc4c3)cn12` [compound 483], the pIC50 in assay [1] (read-out: PI3K β In Vitro IC50) was above 5.00; in assay [2] (read-out: PI3K α In Vitro IC50), above 7.00; in assay [5] (setting [10]) it was above 5.00; in assay [4] (read-out: PI3K γ In Vitro IC50), above 5.00.
Turning to `Nc1nc2cc(-c3ccc4nccc(-c5ccncc5)c4c3)ccc2s1` [compound 70], the pIC50 in assay [1] (read-out: PI3K β IC50), in assay [2] (read-out: PI3K α IC50), in assay [3] (read-out: PI3K δ IC50) and in assay [4] (read-out: PI3K γ IC50) was above 7.00 throughout.
As to `CS(=O)(=O)N1CCN(C2CN(c3cnc4ccc(-c5ccc6oc(N)nc6c5)cc4n3)C2)CC1` [compound 328], the pIC50 was above 5.00 in assay [1] (setting [6]), above 7.00 in assay [2] (setting [7]), above 5.00 in assay [3] (setting [8]) and above 5.00 in assay [4] (setting [9]).
`CO[C@@H]1CCN(C(=O)c2cnc3ccc(-c4ccc5oc(N)nc5c4)cn23)C1` [compound 464]: the pIC50 in assay [2] (read-out: PI3K α In Vitro IC50) was above 7.00; in assay [5] (setting [10]), above 5.00; in assay [4] (read-out: PI3K γ In Vitro IC50) it was above 6.00.
Take `CC(=O)Nc1nc2cc(-c3ccc4nc(N)oc4c3)ccc2s1` [compound 251]: the pIC50 in assay [1] (setting [6]), in assay [2] (setting [7]), in assay [3] (setting [8]) and in assay [4] (setting [9]) was above 7.00 each time.
Take `COc1ncc(-c2ccc3ncc(C(=O)N4CCOCC4)n3c2)cc1NS(=O)(=O)c1ccccc1F` [compound 422]: the pIC50 in assay [1] (read-out: PI3K β In Vitro IC50) was above 5.00; in assay [2] (read-out: PI3K α In Vitro IC50) it was above 7.00; in assay [3] (read-out: PI3K δ In Vitro IC50) it was above 6.00; in assay [4] (read-out: PI3K γ In Vitro IC50), above 7.00.
On to `COc1ncc(-c2ccc3ncc(C(=O)N4CCOCC4)n3c2)cc1NS(=O)(=O)c1ccc(F)cc1` [compound 421], for which the pIC50 is above 6.00 in assay [1] (read-out: PI3K β In Vitro IC50), above 7.00 in assay [2] (read-out: PI3K α In Vitro IC50), above 7.00 in assay [3] (read-out: PI3K δ In Vitro IC50) and above 7.00 in assay [4] (read-out: PI3K γ In Vitro IC50).

The values above are taken from patent US11547697B2, “Heterocyclic compounds and uses thereof” (MILLENNIUM PHARMACEUTICALS, INC., priority 2009, dated 2023).
